Reference: US9447083B2, “N-acylhydrazone derivatives for selective T cell inhibitor and anti-lymphoid malignancy drug” (CHONG KUN DANG PHARMACEUTICAL CORP., priority 2012, dated 2016)

Legend:
KMS20 = assay: Apoptosis of lymphoid malignancy cell lines: KMS20; format: cell-based; conditions: KMS-20; KMS20, Multiple myeloma, 24 hours; read-out: Administration Dose (mean ± SD, μmol/L) Lethal Dose 50 (Apoptosis)
[1] = test system: alloantigen-specific T cells; assay: Inhibitory effect on alloantigen-specific T cells in vivo (donor T cells in spleen of irradiated BDF1 mice); set-up: species or system mouse; conditions: for number of alloantigen-specific T cells in the spleen: compared to vehicle, concentration-dependent
Description: Lymph nodes and spleens were aseptically collected from normal C57BL/6-Ly5.1 mice (8-12 week old, female, 20±2 g), and T cells were isolated in the same manner as described in Experimental Example 2, and were then re-suspended in PBS at a concentration of 1×10^8 cells/mL. Normal BDF1 mice (10-12 week old, female, 20-23 g) were irradiated with 950 rad of γ radiation, and then 100 μL of the above-prepared T cells of C57BL/6-Ly5.1 mice were injected into the tail vein of the BDF1 mice. Compound 229 was completely dissolved in a Cremophor EL (Sigma)/ethanol mixture (1:1, v/v) in an amount corresponding to 15% (v/v) of the administration volume for intraperitoneal administration and in an amount corresponding to 7.5% (v/v) for oral administration, and the compound solution was diluted in PBS. The dilution was administered intraperitoneally (200 μL/mouse) or orally (500 μL/mouse) every day for 5 days from the day of the cell injection. A vehicle control group was administered with a Cremophor EL-ethanol-PBS mixture in the same ratio and volume as those of the test group. At 6 days after the cell injection, the mice were sacrificed, the spleens were collected from the mice, and erythrocyte-free spleen cells were made in the same manner as described in Experimental Example 2. The spleen cells were stained with trypan blue, and the number of viable cells per organ of each animal was counted. Then, the spleen cells were put into 5 mL FACS tubes and washed with 1 mL of FACS buffer. The cells were re-suspended in 0.1 mL of FACS buffer, and then treated with […] of mouse immunoglobulin G in order to prevent the non-specific binding of antibody, followed by incubation at 4° C. for 15 minutes. […] The stained cells were washed twice with 1 mL of FACS buffer, re-suspended in 0.3 mL of FACS buffer and analyzed by a flow cytometer. The number of donor T cells in the spleen was determined by measuring the ratio (%) of a donor T cell fraction (Ly5.1^+ cells) relative to viable cells per spleen.

KMS11 = assay: Apoptosis of lymphoid malignancy cell lines: KMS11; format: cell-based; conditions: Homo sapiens, KMS-11; KMS11, Multiple myeloma, 24 hours; read-out: Administration Dose (mean ± SD, μmol/L) Lethal Dose 50 (Apoptosis)
Description: Each of the acute T cell leukemia cell lines Jurkat, Molt4 and CCRF-CEM, the acute B cell leukemia cell line Raji and the […] cell lines KMS11, KMS12BM, KMS26, KMS28BM, and IM9 was re-suspended in 10% FBS-containing RPMI medium at a concentration of 1.5×10^5 cells/mL, and 200 μL of each of the cell suspensions was cultured in a flat bottom 96-well plate (Costar). The acute NK cell lymphoma cell line NK-92MI was re-suspended in α-MEM medium (supplemented with 20% FBS, 1×MEM vitamine solution, 50 μM 2-mercaptoethanol and 1× penicillin/streptomycin) at a concentration of 1.5×10^5 cells/mL, and 200 μL of the cell suspension was cultured in a flat bottom 96-well plate. The cells in each well was treated with 10 μL of each of 0.1, 0.25, 0.5, 0.75 and 1 μM of the compound diluted with RPMI medium, followed by that the cells were incubated in a 5% CO2 incubator at 37° C. for 24 hours. […]
The cells were collected, and then the apoptosis thereof was analyzed by a flow cytometer after staining with Annexin V-7-AAD. The incubated cells were collected, placed in a 5-mL FACS tube (BD Falcon) and washed with 1 mL of fluorescence activated cell sorting (FACS) buffer (1%. FBS and 0.1% sodium azaide in PBS). […] The stained cells were suspended in 0.3 mL of FACS buffer, and then analyzed by a flow cytometer. […]

[2] = Toxicity test, single oral dose in ICR male mice; conditions: mouse, in vivo, read-out: lethal dose 50 (LD50)
Description: To ICR male mice, a suspension of Compound 229 in 0.5% methylcellulose solution was administered orally once by each doses of 10 mg/kg, 50 mg/kg and 100 mg/kg, and the survival rate and body weight of the mice were investigated for 7 days. After such administration, mouse death or not, clinical condition and body weight change were monitored. Hematology test and biochemical examination of blood were carried out.

Jurkat T cells = assay: Pro-apoptotic activity on Jurkat T cells (FITC-Annexin V / 7-AAD flow cytometry); format: cell-based; conditions: Homo sapiens, 72 hours, cells stained with FITC-Annexin V and 7-AAD among total cells, read-out: Cell Apoptosis Effect to Jurkat T Cell (% in 5 μM)
How it was run: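 Jurkat cells at 1.5×10^5 cells/mL in RPMI/10% FBS treated with compounds at […] or 5 μM final for 72 h at 37° C, vehicle containing 1% DMSO. Stained with FITC-Annexin V and 7-AAD for 15 min at room temperature in pH 7.4 Hepes binding buffer. Apoptosis = % double-stained cells by flow cytometry.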

With `Cc1cc(C)c(OCC(=O)N/N=C/c2ccc3cc[nH]c3c2)c(C2CCOC2)c1` (stereo not shown) [Compound 229, (E)-N′-((1H-indol-6-yl)methylene)-2-(2,4-dimethyl-6-(tetrahydrofuran-3-yl)phenoxy)acetohydrazide] the EC50 (KMS20) was 0.74 ± 0.05 µmol/L, the “number of alloantigen-specific T cells in the spleen” value ([1]; administered intraperitoneally every day for 5 days) was “significantly decreased” and the “number of alloantigen-specific T cells in the spleen” value ([1]; administered orally every day for 5 days) was “significantly decreased”. For the same molecule, the “proliferation of T cells that responded to the alloantigen in vivo” value ([1]; dose of 50 mg/kg) was “completely inhibited”, the EC50 (KMS11) was 0.35 ± 0.09 µmol/L and the LD50 at 7 days [2] was 100 mg/kg. The cytotoxicity at 5 µM (Jurkat T cells) was 100%.
